Results published in patent publication US20140018537A1, “GPR119 AGONIST” (NIPPON CHEMIPHAR CO., LTD., priority 2008, published 2014).

Key:
human GPR119 = biological target: T1, human GPR119 (Homo sapiens, UniProt Q8TDV5); assay: Intracellular cAMP increase in human GPR119 introduced cells (HitHunter cAMP XS+ Assay); assay type: cell-based; settings: for EC50: Table 17, method similar to Example 86, hGPR119 stable cells, intracellular cAMP; for GPR119 agonist effect (in words): hGPR119 introduced cells, cAMP
T1 construct: expressed in transfected cells
T1 sequence (Q8TDV5 1-335): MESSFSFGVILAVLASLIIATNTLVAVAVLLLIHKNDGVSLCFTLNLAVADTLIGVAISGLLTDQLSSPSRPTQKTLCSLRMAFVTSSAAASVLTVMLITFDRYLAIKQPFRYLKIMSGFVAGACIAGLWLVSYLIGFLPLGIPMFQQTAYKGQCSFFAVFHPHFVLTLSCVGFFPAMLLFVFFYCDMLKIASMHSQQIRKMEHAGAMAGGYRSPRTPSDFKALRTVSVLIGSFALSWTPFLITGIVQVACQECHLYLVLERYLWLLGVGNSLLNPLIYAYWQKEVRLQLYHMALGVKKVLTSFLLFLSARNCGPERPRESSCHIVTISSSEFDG
Source text: The GPR119 agonist effect was studied by measuring the effect of an analyte on increase of intracellular amount of cAMP in human GPR119 introduced cells. The testing method is described below.
(1) Construction of the Stable Cell Line Expressing Human G Protein-Coupled-Receptor 119 (hGPR119) Human GPR119 gene (NM 178471) is purchased from American Type Culture Collection (ATCC No. 10807349). Hind III site-added forward side primer ([…]: sequence No. 1) and Apa I site-added reverse side primer ([…]: sequence No. 2) are designed. The target gene is amplyfied by a polymerase chain reaction (PCR) method using KOD-Plus-Ver. 2 (TOYOBO #KOD-211). PCR is conducted by repeating three steps consisting of the step of 98° C.-10 seconds, the step of 55° C.-30 seconds, and the step of 68° C.-1 minute and 10 seconds in 35 cycles. The amplified PCR product is inserted into pcDNA5/FRT/TO (Invitrogen #V6520-20) plasmid. Cells, which can constantly express the target gene with tetracycline, are constructed using Flp-In T-REx-systen (invitorogen).
(2) Measurement of Intracellular Cyclic Adenosine Monophosphate (cAMP)
The hGPR119 introduced cells prepared in (1) are plated on a 96-well plate using Dulbecco's Modified Eagle Medium containing heat-inactived 10% fetal bovine serum. After incubation of 24 hours, tetracyclin (invitrogen #Q10019) is added to the culture medium to induce hGPR119 gene expression. After further incubation of 24 hours, the cells are stimulated with 0.5 mM 3-ISOBUTYL-1-METHYLXANTHINE (Sigma #17018) phosphate buffer containing the analyte at 37° C. for 30 minutes. The amount of the intracellular cAMP is measured by using FLUOstar Optima (BMG LABTECH) according to the protocol of HitHunter™ cAMP XS+Assay (GE Healthcare #90007503) to give the agonist activity of the analyte to the GPR119 receptor.
(1) Construction of the Stable Cell Line Expressing Human G-Protein Coupled Receptor 119 (hGPR119) hGPR119 gene (NM 178471) was purchased from American Type Culture Collection (ATCC No. 10807349). The forward primer that was added a HindIII site ([…] (sequence number 1)), and the reverse primer that was added an ApaI site ([…] (sequence number 2)) were designed, the target gene was amplified by polymerase chain reaction (PCR) using a KOD-Plus-Ver.2 (TOYOBO #KOD-211). PCR was repeated 3 steps (98° C. for 10 sec, 55° C. for 30 sec, 68° C. for 1 min 15 sec) by 35 cycles. Amplified PCR product was inserted in pcDNA5/FRT/TO (Invitrogen #V6520-20), and the stable cell line that expresses target gene when induced with tetracycline was created using the Flp-In T-Rex system (Invitrogen).
(2) Measuring Method of Intracellular Cyclic Adenosine Monophosphate (cAMP) hGPR119 stable cells made by above-mentioned (1) were plated on 96 well plates in Dulbecco's Modified Eagle Medium containing 10% heat-inactivated FBS. After 24 hours, the hGPR119 expression was induced by adding medium containing tetracycline (Invitrogen #Q10019) and incubating for another 24 hours. Following incubation, cells were stimulated by 0.5 mM 3-ISOBUTYL-1-METHYLXANTHINE (Sigma #17018) phosphate buffered saline containing test compound for 30 minutes at 37° C. Agonist activity of test compound to the GPR119 receptor was estimated by measuring the intracellular cAMP concentration using a Fluostar optima plate reader (BMG LABTECH) according to the manufacturer's protocol of the HitHunter™ cAMP XS+Assay (GE Healthcare #90007503).
The examination was performed by the method similar to Example 86 (Pharmacological experiment 1)-(1), -(2).

Structure (SMILES) | EC50 (human GPR119) | GPR119 agonist effect (in words) (human GPR119) | melting point
Cc1cc(S(C)(=O)=O)ccc1OCc1ncc(C2CCN(C(=O)OC(C)(C)C)CC2)cc1C [Example 82, tert-Butyl 4-[2-(4-methanesulfonyl-2-methylphenoxymethyl)-3-methylpyridin-5-yl]piperidine-1-carboxylate] | 58.8 nM |  | 
CC(C)(C)OC(=O)N1CCC(c2ccc(CCc3ccc(S(C)(=O)=O)cc3)nc2)CC1 [Example 79, tert-Butyl 4-[2-[2-(4-methanesulfonylphenyl)ethyl]pyridin-5-yl]piperidine-1-carboxylate] | 142 nM |  | 
Cc1cc(C2CCN(C(=O)OC(C)(C)C)CC2)cnc1COc1ccc(-n2cnnn2)cc1F [Example 83, tert-Butyl 4-[2-[2-fluoro-4-(tetrazol-1-yl)phenoxymethyl]-3-methylpyridin-5-yl]piperidine-1-carboxylate] | 21.9 nM | excellent GPR119 agonist effect | 
CCOC(=O)N1CCC(c2ccc(COc3ccc(S(C)(=O)=O)cc3)nc2)CC1 [Example 43, Ethyl 4-[2-(4-methanesulfonylphenoxymethyl)pyridin-5-yl]piperidine-1-carboxylate] |  |  | 119 to 121 °C
CC(C)(C)OC(=O)N1CC=C(c2cnc(COc3ccc(S(C)(=O)=O)cc3)cc2Cl)CC1 [Example 76, tert-Butyl 4-[4-chloro-2-(4-methanesulfonylphenoxymethyl)pyridin-5-yl]-3,6-dihydro-2H-pyridine-1-carboxylate] |  |  | 148 to 150 °C
CC(C)(C)OC(=O)N1CCC(c2cnc(COc3ccc(S(C)(=O)=O)cc3)c(F)c2)CC1 [Example 75, tert-Butyl 4-[3-fluoro-2-(4-methanesulfonylphenoxymethyl)pyridin-5-yl]piperidine-1-carboxylate] | 22.4 nM |  | 
CC(C)(C)OC(=O)N1CCC(c2ccc(COc3ccc(NS(C)(=O)=O)cc3)nc2)CC1 [Example 35, tert-Butyl 4-[2-(4-methanesulfonylaminophenoxymethyl)pyridin-5-yl]piperidine-1-carboxylate] |  |  | 171 to 173 °C
CCCCCc1cnc(N2CCC(c3ccc(COc4ccc(C#N)c(F)c4)nc3)CC2)nc1 [Example 54, 2-[4-[2-(4-Cyano-3-fluorophenoxymethyl)pyridin-5-yl]piperidin-1-yl]-5-pentylpyrimidine] |  |  | 92 to 94 °C
CC(C)(C)CC(=O)N1CCC(c2ccc(COc3ccc(S(C)(=O)=O)cc3)nc2)CC1 [Example 46, 1-[4-[2-(4-Methanesulfonylphenoxymethyl)pyridin-5-yl]piperidin-1-yl]-3,3-dimethylbutan-1-one] |  |  | 140 to 142 °C
CC(C)(C)OC(=O)N1CCC(c2ccc(COc3ccc(S(C)(=O)=O)c(F)c3)nc2)CC1 [Example 18, tert-Butyl 4-[2-(3-fluoro-4-methanesulfonylphenoxymethyl)pyridin-5-yl]piperidine-1-carboxylate] | 85.4 nM |  | 
CCc1cnc(N2CCC(c3ccc(COc4ccc(C#N)c(F)c4)nc3)CC2)nc1 [Example 52, 2-[4-[2-(4-Cyano-3-fluorophenoxymethyl)pyridin-5-yl]piperidin-1-yl]-5-ethylpyrimidine] |  |  | 129 to 131 °C
Cc1cc(C2CCN(C(=O)OC(C)(C)C)CC2)cnc1COc1ccc(S(C)(=O)=O)cc1Br [Example 81, tert-Butyl 4-[2-(2-bromo-4-methanesulfonylphenoxymethyl)-3-methylpyridin-5-yl]piperidine-1-carboxylate] | 39.2 nM |  | 
CC(C)(C)OC(=O)N1CCC(c2ccc(CSc3ccc(S(C)(=O)=O)cc3)nc2)CC1 [Example 84, tert-Butyl 4-[2-(4-methanesulfonylphenylthiomethyl)pyridin-5-yl]piperidine-1-carboxylate] | 128 nM |  | 
CC(C)(C)OC(=O)N1CCC(c2ccc(COc3ccc(-n4cnnn4)cc3)nc2)CC1 [Example 17, tert-Butyl 4-[2-[4-(tetrazol-1-yl)phenoxymethyl]pyridin-5-yl]piperidine-1-carboxylate] | 34 nM |  | 
CC(C)COC(=O)N1CCC(c2ccc(COc3ccc(S(C)(=O)=O)cc3)nc2)CC1 [Example 44, Isobutyl 4-[2-(4-methanesulfonylphenoxymethyl)pyridin-5-yl]piperidine-1-carboxylate] |  |  | 114 to 117 °C
COc1cc(S(C)(=O)=O)ccc1OCc1ccc(C2CCN(C(=O)OC(C)(C)C)CC2)cn1 [Example 26, tert-Butyl 4-[2-(4-methanesulfonyl-2-methoxyphenoxymethyl)pyridin-5-yl]piperidine-1-carboxylate] |  |  | 135 to 138 °C
CC(C)(C)OC(=O)N1CCC(c2ccc(COc3cccc([N+](=O)[O-])c3)nc2)CC1 [Example 30, tert-Butyl 4-[2-(3-nitrophenoxymethyl)pyridin-5-yl]piperidine-1-carboxylate] |  |  | 94 to 96 °C
Cc1cc(S(C)(=O)=O)ccc1OCc1ccc(C2CCN(C(=O)OC(C)(C)C)CC2)cn1 [Example 22, tert-Butyl 4-[2-(4-methanesulfonyl-2-methylphenoxymethyl)pyridin-5-yl]piperidine-1-carboxylate] | 24 nM |  | 
CC(C)(C)OC(=O)N1CCC(c2cnc(COc3ccc(S(C)(=O)=O)cc3)c(C(F)(F)F)c2)CC1 [Example 73, tert-Butyl 4-[2-(4-methanesulfonylphenoxymethyl)-3-trifluoromethylpyridin-5-yl]piperidine-1-carboxylate] | 48 nM |  | 
CCc1cnc(N2CCC(c3ccc(COc4ccc(-n5cnnn5)cc4)nc3)CC2)nc1 [Example 51, 5-Ethyl-2-[4-[2-[4-(tetrazol-1-yl)phenoxymethyl]pyridin-5-yl]piperidin-1-yl]pyrimidine] | 257 nM |  | 
CC(C)(C)OC(=O)N1CCC(c2ccc(COc3ccc(S(C)(=O)=O)cc3F)nc2)CC1 [Example 12, tert-Butyl 4-[2-(2-fluoro-4-methanesulfonylphenoxymethyl)pyridin-5-yl]piperidine-1-carboxylate] | 54.7 nM |  | 
CC(C)(C)OC(=O)N1CCC(c2cnc(COc3ccc(S(C)(=O)=O)cc3)c(Cl)c2)CC1 [Example 71, tert-Butyl 4-[3-chloro-2-(4-methanesulfonylphenoxymethyl)pyridin-5-yl]piperidine-1-carboxylate] | 29.3 nM |  | 
CC(C)(C)OC(=O)N1CCC(c2ccc(COc3ccc(S(N)(=O)=O)cc3)nc2)CC1 [Example 21, tert-Butyl 4-[2-(4-sulfamoylphenoxymethyl)pyridin-5-yl]piperidine-1-carboxylate] | 59.3 nM |  | 
CC(C)(C)OC(=O)N1CCC(c2ccc(COc3ccc(S(C)(=O)=O)cc3Cl)nc2)CC1 [Example 25, tert-Butyl 4-[2-(2-chloro-4-methanesulfonylphenoxymethyl)pyridin-5-yl]piperidine-1-carboxylate] | 21.2 nM | excellent GPR119 agonist effect | 
CC(C)(C)OC(=O)N1CCC(c2ccc(COc3ccc(-n4cnnn4)cc3F)nc2)CC1 [Example 37, tert-Butyl 4-[2-[2-fluoro-4-(tetrazol-1-yl)phenoxymethyl]pyridin-5-yl]piperidine-1-carboxylate] | 80.6 nM |  | 
